In ChEMBL document CHEMBL1155391, “SelSA, selenium analogs of SAHA as potent histone deacetylase inhibitors” (Bioorg Med Chem Lett, 2010):

How the values were obtained:
HeLa = assay: Selectivity ratio of IC50 for drug to SAHA against human HDAC in HeLa cell nuclear extract; format: cell-based
[1] = biological target: Histone deacetylase (Homo sapiens) (UniProt Q13547+O15379+Q9UBN7+Q92769+Q9UQL6+Q8WUI4+Q9BY41+Q96DB2+P56524+Q9UKV0+Q969S8); conditions: HeLa, at 50 nM
Description: Inhibition of human HDAC in human HeLa cell nuclear extract at 50 nM after 15 mins by colorimetric assay

Histone deacetylase = assay: Inhibition of human HDAC in human HeLa cell nuclear extract after 15 mins by colorimetric assay; format: cell-based

| SMILES | Ratio IC50 (HeLa) | inhibition [1] | IC50 (Histone deacetylase) |
| --- | --- | --- | --- |
| O=C(CCCCC[Se][Se]CCCCCC(=O)Nc1ccccc1)Nc1ccccc1 | > 20 | 81% | – |
| N#C[Se]CCCCCC(=O)Nc1ccccc1 | 20 | 95% | 8.9 nM |
